The test deals with T1, SiE5′NT (Serendipita indica, UniProt G4T774).
T1 construct: gene PIIN_01005; untagged full-length with signal peptide and predicted GPI anchor, 35S promoter, expressed in Arabidopsis thaliana (line 303 1L3); detergent-solubilised membrane protein preparation
T1 sequence (G4T774 20-579): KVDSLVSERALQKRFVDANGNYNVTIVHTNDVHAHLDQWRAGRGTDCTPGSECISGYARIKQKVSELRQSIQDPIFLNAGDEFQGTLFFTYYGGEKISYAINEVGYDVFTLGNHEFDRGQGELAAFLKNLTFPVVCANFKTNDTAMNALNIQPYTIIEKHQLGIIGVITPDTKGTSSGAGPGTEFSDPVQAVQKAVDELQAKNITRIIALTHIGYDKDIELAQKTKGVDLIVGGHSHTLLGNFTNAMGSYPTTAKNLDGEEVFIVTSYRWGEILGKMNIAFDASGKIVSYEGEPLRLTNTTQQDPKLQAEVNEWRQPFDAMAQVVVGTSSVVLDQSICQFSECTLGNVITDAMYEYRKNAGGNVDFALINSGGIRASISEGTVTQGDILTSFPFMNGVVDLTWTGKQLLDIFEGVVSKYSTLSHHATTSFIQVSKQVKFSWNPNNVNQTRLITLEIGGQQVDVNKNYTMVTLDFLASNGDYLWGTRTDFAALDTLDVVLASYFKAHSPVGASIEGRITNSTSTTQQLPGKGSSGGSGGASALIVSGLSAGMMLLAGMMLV
Description: phosphate release (EnzChek phosphate assay), membrane protein preparation of transgenic A. thaliana versus mCherry control line. It counts as biochemical. The settings on record: 100 μM substrate, 10 mM Tris/MES, 2 mM MgCl2, 30 mM KCl, pH 6.5.

Consider `Nc1ncnc2c1ncn2[C@@H]1O[C@H](COP(=O)(O)O)[C@@H](O)[C@H]1O` [AMP], for which the “phosphate release (EnzChek phosphate assay), membrane protein preparation of tra” value was “production of a membrane‐localized enzyme capable of hydrolyzing ATP, ADP, and AMP”.
The value for `Nc1ncnc2c1ncn2[C@@H]1O[C@H](COP(=O)(O)OP(=O)(O)OP(=O)(O)O)[C@@H](O)[C@H]1O` [ATP] was “production of a membrane‐localized enzyme capable of hydrolyzing ATP, ADP, and AMP”.

Source of the values: publication PMC6362346, “Serendipita indica E5′NT modulates extracellular nucleotide levels in the plant apoplast and affects fungal colonization” (EMBO Reports, 2019).
